Reference: patent publication US12533095B1, “Airway mucus scoring system” (The Regents of the University of California, priority 2016, dated 2026)

Columns and labels:
[1] = Systemic corticosteroid responsiveness test (SCRT); format: in vivo, human
Method: Systemic Corticosteroid Responsiveness Test (SCRT): Patients were given an intramuscular injection of triamcinolone acetonide (40 mg) following complete characterization on visit 2. Repeat characterization post steroid injection (excluding MDCT), was carried out on visit 3 (2-4 weeks later) (FIG. 5). Treatment response to bronchodilators and systemic corticosteroids: Maximum Bronchodilator Reversibility tests (MBRT's) were performed on baseline visits 2 and 3. MBRT was determined by measuring spirometry before and after 360-720 meg of albuterol sulfate delivered by metered-dose inhaler. Patients also underwent a systemic corticosteroid response test (SCRT), which involved an intramuscular injection of triamcinolone acetonide (40 mg) on visit 2 and repeat characterization including MBRT and blood draw on visit 3 (2-4 weeks later). Induced Sputum: Sputum induction was done on visits 2 and 3. For safety, induced sputum was only collected from patients whose FEV1 was >50% predicted after albuterol pretreatment (360 μg). Total and differential cell counts were quantified in a central laboratory (Wake Forest University) using methods previously described^5,6. Gene expression for type 2 cytokines [interleukin (IL)-4, IL-5, and IL-13] and for airway gel-forming mucins (MUC5AC, MUC5B) were measured in RNA isolated from induced sputum cell pellets using real-time Taqman-based quantitative PCR (qPCR) 7 as described herein (including Table 3). RNA isolation and qPCR were done in a central laboratory (University of California at San Francisco).

[2] = Bronchodilator reversibility testing repeated after intramuscular corticosteroid (combined SCRT and MBRT); format: in vivo, human; conditions: patients with high mucus scores; bronchodilator reversibility testing repeated after intramuscular steroid
Method: Systemic Corticosteroid Responsiveness Test (SCRT): Patients were given an intramuscular injection of triamcinolone acetonide (40 mg) following complete characterization on visit 2. Repeat characterization post steroid injection (excluding MDCT), was carried out on visit 3 (2-4 weeks later) (FIG. 5). Treatment response to bronchodilators and systemic corticosteroids: Maximum Bronchodilator Reversibility tests (MBRT's) were performed on baseline visits 2 and 3. MBRT was determined by measuring spirometry before and after 360-720 meg of albuterol sulfate delivered by metered-dose inhaler. Patients also underwent a systemic corticosteroid response test (SCRT), which involved an intramuscular injection of triamcinolone acetonide (40 mg) on visit 2 and repeat characterization including MBRT and blood draw on visit 3 (2-4 weeks later). Maximum bronchodilator reversibility test (MBRT): Subjects were asked to hold their bronchodilator medications prior to spirometry testing. Following baseline spirometry, 4 puffs of albuterol (360 mcg) were administered. Spirometry was then repeated 15 minutes later. If the change in FEV1 from the spirometry maneuver performed after 4 puffs was greater than 5%, an additional 2 puffs of albuterol (180 mcg) were then administered and spirometry was repeated again 15 minutes later. […] MBRT was measured on baseline visits 2 and 3 (FIG. 5).

[3] = test system: eosinophils; assay: Cysteine cross-linking assay (BODIPY labeled cysteine exposed to eosinophils); format: cell-based, human; conditions: unstimulated and PMA-stimulated eosinophils; vs catalase-free control (FIG. 11H)
Method: Eosinophil Isolation and stimulation of respiratory burst: Eosinophils were purified from the peripheral blood of 4 atopic asthmatic subjects (age 48±23 years). Each subject donated 100 mL of blood on one or more occasions. All subjects signed consent forms and usage was approved by the UCSF Committee on Human Research. Eosinophils were isolated from whole blood using a three-step method in which we first pelleted the cells, followed by water lysis to remove red blood cells and finally eosinophils were purified using immunomagnetic beads (Human Eosinophil Isolation kit. Miltenyi Biotec). Briefly, whole blood was collected in EDTA (purple-top) tubs and pelleted at 1500 g for 15 minutes at 4° C. The plasma on top was removed and cell pellet retained for two cycles of water lysis. […]
Cysteine cross-linking assay: To explore cystine formation generated by eosinophil stimulation, BODIPY FL L-cysteine was generated from […] BODIPY FL L-Cystine (ThermoFisher Scientific) in Tyrode's Salts by reduction with one quarter volume packed TCEP-Gel (ThermoFisher Scientific) for 1 hour at 25° C. The reaction yields an 8 to 10-fold increase in fluorescence at 490 nm/520 nm Ex/Em. […] The decrease in fluorescence at 490 nm/520 nm Ex/Em was monitored over 2 hours at 37° C. on a Synergy H1 plate reader (BioTek Instruments) with the addition of 50,000 peripheral blood eosinophils in 100 μl Tyrode's Salts. […]

[4] = Maximum bronchodilator reversibility test (MBRT); format: in vivo, human
Method: Treatment response to bronchodilators and systemic corticosteroids: Maximum Bronchodilator Reversibility tests (MBRT's) were performed on baseline visits 2 and 3. MBRT was determined by measuring spirometry before and after 360-720 meg of albuterol sulfate delivered by metered-dose inhaler. Patients also underwent a systemic corticosteroid response test (SCRT), which involved an intramuscular injection of triamcinolone acetonide (40 mg) on visit 2 and repeat characterization including MBRT and blood draw on visit 3 (2-4 weeks later). Maximum bronchodilator reversibility test (MBRT): Subjects were asked to hold their bronchodilator medications prior to spirometry testing. Following baseline spirometry, 4 puffs of albuterol (360 mcg) were administered. Spirometry was then repeated 15 minutes later. If the change in FEV1 from the spirometry maneuver performed after 4 puffs was greater than 5%, an additional 2 puffs of albuterol (180 mcg) were then administered and spirometry was repeated again 15 minutes later. If the change in FEV1 after 6 puffs was greater than 5%, an additional 2 puffs of albuterol were administered with repeat spirometry after an additional 15 minutes. If the change was less than 5% after 4 or 6 puffs of albuterol, the procedure was stopped and the last maneuver was taken to be the highest achievable measure. No more than 8 puffs of albuterol were administered as part of the MBRT procedure. MBRT was measured on baseline visits 2 and 3 (FIG. 5).

[5] = test system: primary human airway epithelial cells; assay: Apical secretion of Eotaxin-3 (CCL26) at air liquid interface; format: cell-based; conditions: 10 ng/ml in basolateral media for 4 days; vs untreated control (FIG. 11E)
Text: Apical secretion of Eotaxin-3 (CCL26): Human airway epithelial cells (AECs) were isolated from tracheas collected from cadaveric lung donors from the California Donor Network as a part of a separate study (Gordon et al., Proc Natl Acad Sci USA. 113, 8765-8770. doi: 8710.1073/pnas.1601914113. Epub 160191216 Jul. 1601914118. (2016)). Cells were expanded in 5% FCS in DMEM/F12 supplemented with a rho kinase inhibitor (Y-27632 SellekChem) to promote proliferation (Liu et al., Am J Pathol. 180, 599-607. doi: 510.1016/j.ajpath.2011.1010.1036. Epub 211 Dec. 1018. (2012)). Once cells reached 90% confluency flasks were washed and cells trypsinized with TrypLE (Gibco). Subconfluent cells were plated to submerged transwell inserts, using the modified Schlegel culture conditions previously described (Chu et al., Gene Ther. 22, 822-829. doi: 810.1038/gt.2015.1053. Epub 2015 July 1032. (2015)). Once cells reached confluence, the cultures were taken to air-liquid interface (ALI) in PnuemaCult Maintenance media (StemCell Technologies) and maintained for 21-days. At day 21, cells were treated with 10 ng/ml recombinant human IL-13 (R&D systems) in the basolateral media for 4 days. To measure eotaxins secreted at the apical surface of ALI cultures. 300 μL warmed PBS was added to the surface of the cells. […]

CC1(C)O[C@@H]2C[C@H]3[C@@H]4CCC5=CC(=O)C=C[C@]5(C)[C@@]4(F)[C@@H](O)C[C@]3(C)[C@]2(C(=O)CO)O1 [triamcinolone acetonide]
patients with residual abnormalities in FEV1 following the SCRT ([1]; asthma patients with high mucus scores, intramuscular 40 mg): 72% | patients with residual FEV1 abnormalities following the SCRT ([1]; asthma patients with zero mucus scores, intramuscular 40 mg): 28% | mean post steroid FEV1 lower in the high-mucus group than the zero-mucus group ([1]; asthma patients, intramuscular 40 mg, high vs zero mucus group): 21% | Sputum eosinophil % following treatment with intramuscular steroid ([1]; patients with a high mucus score (FIG. 10A)): remains significantly increased | Gene expression for interleukin 13 in sputum cells following treatment with intramuscular steroid ([1]; patients with a high mucus score (FIG. 10B)): remains significantly increased | Gene expression for interleukin 5 in sputum cells following treatment with intramuscular steroid ([1]; patients with a high mucus score (FIG. 10C)): remains significantly increased | FEV1% predicted post steroid treatment ([1]; subjects with a high mucus score (FIG. 4B)): remained significantly decreased | proportion of patients whose FEV1 remained below 80% [2]: half

catalase
cystine dimer formation [3]: significantly decreased

CC(C)(C)NCC(O)c1ccc(O)c(CO)c1 (stereo not shown) [albuterol]
patients with residual abnormalities in FEV1 (FEV1 <80% predicted) following maximum bronchodilator testing ([4]; asthma patients with a high mucus score): 73% | patients with residual FEV1 abnormalities after maximum bronchodilation testing ([4]; asthma patients with a zero-mucus score): 20% | mean post-bronchodilator FEV1 in the high mucus group lower than in the zero-mucus group ([4]; asthma patients, inhaled albuterol (540-720 mcg), high vs zero mucus group): 24%

IL-13: recombinant human IL-13 (R&D systems) used to stimulate airway epithelial cells
concentration of eotaxin-3 in apical mucus secretions [5]: marked increases
